Test results reported in publication PMC4754833, “Rilpivirine analogs potently inhibit drug-resistant HIV-1 mutants” (Retrovirology, 2016).

Experiments:
[1] = test system: HIV-1 RT mutant L100I/K103N; experiment: single round infection assay, L100I/K103N; assay type: cell-based; conditions: for IC50: ± SD, n=4, limit of detection 100 nM; for fold-change of IC50 of the mutant relative to WT: L100I/K103N vs WT
Procedure: (§1) The human osteosarcoma cell line, HOS, was obtained from Dr. Richard Schwartz (Michigan State University, East Lansing, MI) and grown in Dulbecco’s modified Eagle’s medium (Invitrogen, Carlsbad, CA) supplemented with 5 % (v/v) fetal bovine serum, 5 % newborn calf serum, and penicillin (50 units/ml) plus streptomycin (50 µg/ml; Quality Biological, Gaithersburg, MD). Virion production and single-round infectivity assays were used to determine antiviral activity (IC50 values) of the compounds as previously described.
(§2) pNLNgoMIVR-ΔEnv.LUC has been described previously. The RT open reading frame was removed from pNLNgoMIVR-ΔEnv.LUC (digestion with SpeI and SalI) and inserted between the SpeI and SalI sites of pBluescript II KS+. Using that construct as the wild-type template, we prepared the following HIV-1 RT mutants using the QuikChange II XL (Stratagene, La Jolla, CA) site-directed mutagenesis protocol kit: L100I, K103N, Y181C, Y188L, H221Y, K103N/Y181C, G190A, G190S, M230L, P236L, L100I/K103N, K103N/P225H, V106A/G190A/F227L, V106A, L234I, V106A/F227L, V106A/L234I, V106A/F227L/L234I, E40K, D67E, K101E, V111A, E138K, M184I, M184V, K101E/M184I, K101E/M184V, E138K/M184I, E138K/M184V, K101P, Y181I, and K101P/V179I. The following sense oligonucleotides were used with matching cognate antisense oligonucleotides (not shown) (Integrated DNA Technologies, Coralville, IA) in the mutagenesis: L100I, 5′-[…]-3′; L100I 2-103, 5′-[…]-3′; K103N, 5′-[…]-3′; Y181C, 5′-[…]-3′; Y188L, 5′-[…]-3′; H221Y, 5′-[…]-3′; G190A, 5′-[…]-3′; G190S, 5′-[…]-3′; P225H, 5′-[…]-3′; F227, 5′-[…]-3′; M230L, 5′-[…]-3′; P236L, 5′-[…]-3′; V106A, 5′-[…]-3′; L234I, 5′-[…]-3′; E40K, 5′-[…]-3′; D67E, 5′-[…]-3′; K101E, 5′-[…]-3′; V111A, 5′-[…]-3′; E138K, 5′-[…]-3′; M184I, 5′-[…]-3′; M184V, 5′-[…]-3′; K101P, 5′-[…]-3′; Y181I, 5′-[…]-3′; K101P/V179I, 5′-[…]-3′. The double mutants K103N/Y181C, K103N/P225H, and L100I/K103N were made using the previously generated K103N mutant and the appropriate oligonucleotides to add the second mutation, Y181C, P225, and L100I respectively. The double mutants V106A/F227L and V106A/L234I were prepared using the previously generated V106A mutant and the appropriate oligonucleotides to add the second mutation, F227L and L234I, respectively. The double mutants K101E/M184I and K101E/M184V were constructed using the previously generated K101E mutant and the appropriate oligonucleotides to add the second mutation, M184I and M184V, respectively. The double mutants E138K/M184I and E138K/M184V were constructed using the previously generated E138K mutant and the appropriate oligonucleotides for the second mutation, M184I and M184V, respectively. The triple mutant V106A/F227L/L234I was made using the previously generated V106A/F227L double mutant and the appropriate oligonucleotides for the third mutation, L234I. The triple mutant V106A/G190A/F227L was constructed in a series of steps using the previously generated V106A mutant and the appropriate oligonucleotides for the second mutation, G190A, to generate the double mutant V106A/G190A, and then the triple mutant was made using double mutant V106A/G190A and oligonucleotides for the third mutation, F227L. The DNA sequence of each construct was verified by DNA sequence determination. The sequences encoding the mutant RTs were then subcloned into pNLNgoMIVR-ΔEnv.LUC (between the KpnI and SalI sites) to produce the mutant HIV-1 constructs. These DNA sequences were also checked independently by DNA sequence determination.
(§3) 10.1186/s12977-016-0244-2 The IC50 values (nM) of RPV and the RPV analogs were determined against the NNRTI resistant mutants were measured by using a single round infection assay, n = 4. The concentrations (nM) are measured by reductions in luciferase reporter activity followed by the standard deviations. […]

HIV-1 RT mutant E40K = experiment: single round infection assay, E40K; assay type: cell-based; conditions: for fold-change of IC50 of the mutant relative to WT: E40K vs WT
Procedure: as §1, §2, §3

[2] = test system: HIV-1 RT mutant E138K/M184V; experiment: single round infection assay, E138K/M184V; assay type: cell-based; conditions: for fold-change of IC50 of the mutant relative to WT: E138K/M184V vs WT; for IC50: ± SD, n=4
Procedure: as §1, §2, §3

HIV-1 RT mutant V106A = experiment: single round infection assay, V106A; assay type: cell-based; conditions: for IC50: ± SD, n=4; for fold-change of IC50 of the mutant relative to WT: V106A vs WT
Procedure: as §1, §2, §3

WT HIV-1 = conditions: previous study; cited from earlier work
HIV-1 RT mutant G190S = experiment: single round infection assay, G190S; assay type: cell-based; conditions: Human immunodeficiency virus 1
Procedure: as §1, §2, §3

HIV-1 RT mutant Y181C = test system: HIV-1 RT mutant Y181C; parameters: method as in PMID 23217210; conditions: previous study; cited from earlier work
[3] = test system: HIV-1 RT mutant V106A/F227L/L234I; experiment: single round infection assay, V106A/F227L/L234I; assay type: cell-based; conditions: for IC50: ± SD, n=4; for fold-change of IC50 of the mutant relative to WT: V106A/F227L/L234I vs WT
Procedure: as §1, §2, §3

[4] = test system: HIV-1 RT mutant K103N/P225H; experiment: single round infection assay, K103N/P225H; assay type: cell-based; conditions: for IC50: Human immunodeficiency virus 1; for fold-change of IC50 of the mutant relative to WT: K103N/P225H vs WT
Procedure: as §1, §2, §3

[5] = test system: HIV-1 RT mutant K101E/M184V; experiment: single round infection assay, K101E/M184V; assay type: cell-based; conditions: for fold-change of IC50 of the mutant relative to WT: K101E/M184V vs WT
Procedure: as §1, §2, §3

HIV-1 RT mutant K101E = experiment: single round infection assay, K101E; assay type: cell-based; conditions: for IC50: ± SD, n=4; for fold-change of IC50 of the mutant relative to WT: K101E vs WT
Procedure: as §1, §2, §3

HIV-1 RT mutant G190A = experiment: single round infection assay, G190A; assay type: cell-based; conditions: for IC50: Human immunodeficiency virus 1; for fold-change of IC50 of the mutant relative to WT: G190A vs WT
Procedure: as §1, §2, §3

HIV-1 RT mutant E138K = experiment: single round infection assay, E138K; assay type: cell-based; conditions: for fold-change of IC50 of the mutant relative to WT: E138K vs WT; for IC50: ± SD, n=4
Procedure: as §1, §2, §3

[6] = Human immunodeficiency virus 1, L100I/K103N
[7] = Human immunodeficiency virus 1, E138K/M184V
[8] = Human immunodeficiency virus 1, V106A/F227L/L234I (selected by DOR)
[9] = V106A/F227L/L234I (selected by DOR)
[10] = Human immunodeficiency virus 1, K101E
[11] = Human immunodeficiency virus 1, E138K

Compound | IC50 [1, 6] | fold-change of IC50 of the mutant relative to WT [1] | fold-change of IC50 of the mutant relative to WT (HIV-1 RT mutant E40K) | fold-change of IC50 of the mutant relative to WT [2] | IC50 ([2]; E138K/M184V) | IC50 [2, 7] | fold-change of IC50 of the mutant relative to WT (HIV-1 RT mutant V106A) | IC50 (WT HIV-1) | IC50 (HIV-1 RT mutant G190S) | IC50 (HIV-1 RT mutant Y181C) | IC50 [3, 8] | IC50 [3, 9] | fold-change of IC50 of the mutant relative to WT [3] | IC50 [4] | fold-change of IC50 of the mutant relative to WT [4] | fold-change of IC50 of the mutant relative to WT [5] | fold-change of IC50 of the mutant relative to WT (HIV-1 RT mutant K101E) | IC50 (HIV-1 RT mutant G190A) | fold-change of IC50 of the mutant relative to WT (HIV-1 RT mutant E138K) | IC50 (HIV-1 RT mutant E138K; [11]) | also measured
Cc1cc(/C=C/C#N)cc(C)c1Nc1ncc(N)c(Nc2ccc(C#N)cc2)n1 [compound 9] | 44.1 nM | 34 | 2 | 4 | 5.5 ± 1 nM | < 6 nM | < 2 | < 7 nM | 0.6 ± 0.07 nM | < 7 nM | < 5 nM | 6.4 ± 1.8 nM | 5 | 4.6 ± 0.3 nM | 4 | < 2 | 3 | 0.6 nM | 4 | < 6 nM | IC50 (HIV-1 RT mutant V106A; Human immunodeficiency virus 1, V106A (selected by DOR)): < 5 nM; IC50 (HIV-1 RT mutant V106A; V106A (selected by DOR)): 2.5 ± 1.2 nM; IC50 (HIV-1 RT mutant K101E; [10]): < 6 nM; IC50 (HIV-1 RT mutant K101E; K101E): 4.1 ± 1.5 nM; IC50 (HIV-1 RT mutant E138K; E138K): 5.6 ± 1.4 nM
COc1ccc(Cn2cnc3c(Nc4ccc(C#N)cc4)nc(Nc4c(C)cc(/C=C/C#N)cc4C)nc32)cc1 [compound 12] | < 5.4 nM | 6 | < 2 | 7 |  | 4.9 ± 0.99 nM | < 2 | < 7 nM | 0.37 ± 0.02 nM | < 7 nM |  |  | < 2 | 3 ± 0.4 nM | 4 | 3 | 5 | 0.9 ± 0.43 nM | 12 | 7.8 ± 0.64 nM | IC50 ([1]; L100I/K103N): 4.3 ± 2.6 nM; IC50 (HIV-1 RT mutant E40K; Human immunodeficiency virus 1, E40K, ± SD, n=4): 1 ± 0.04 nM; IC50 ([5]; Human immunodeficiency virus 1, K101E/M184V, ± SD, n=4): 1.8 ± 0.21 nM; IC50 (HIV-1 RT mutant K101E; [10]): 3.3 ± 0.3 nM; fold-change of IC50 of the mutant relative to WT (HIV-1 RT mutant G190A): < 2
COc1ccc(Nc2nc(Nc3c(C)cc(/C=C/C#N)cc3C)nc3[nH]cnc23)cc1 [compound 16] |  | 11 | < 2 | 10 | 1.7 ± 0.35 nM | < 2.5 nM | 3 | < 7 nM | 0.17 ± 0.05 nM | < 7 nM | < 5 nM | 3 ± 0.8 nM | 18 | 2.7 ± 0.07 nM | 16 | 2 | 5 | 0.37 ± 0.08 nM | 11 | < 2.5 nM | fold-change of IC50 of the mutant relative to WT (HIV-1 RT mutant G190A): 2; IC50 (HIV-1 RT mutant E138K; E138K): 1.9 ± 0.01 nM
